Values after ≈ are worked out from the molar mass of the structure shown.

A short description of this series: Solubility test in water (stepwise addition of water, ultrasonic waves, visual observation of precipitate). Type of series: physicochemical. As to conditions: for solubility at 1 min: from solid; for solubility in water as a fraction of the solubility of 2,7hpp2SF in water: one atmosphere, RT, relative to comparative 2,7hpp2SF. The method, then: In this example, the solubility of the organic compounds that can be used in the display apparatus of one embodiment of the present invention is described. Note that the solubility test was conducted at a pressure of one atmosphere at room temperature (RT).
The mixture was irradiated with ultrasonic waves for 1 minute. The mixture was visually observed, and a white powdered precipitate was observed. This means part of 2′,7′tBu-2,7hpp2SF remained undissolved. […] This process was repeated until the white powdered precipitate was not visually observed any more. Thus, the solubility was examined.
The mixture was irradiated with ultrasonic waves for 1 minute. Whether part of the mixture remained undissolved was visually confirmed, and a white powdered precipitate was observed. […] This process was repeated.
The mixture was irradiated with ultrasonic waves for 1 minute. The mixture was observed, and a white powdered precipitate was observed. This means part of 2,7hpp2SF remained undissolved. […] This process was repeated until the white powdered precipitate was not visually observed any more. Thus, the solubility was examined.

For the compound `CC(C)(C)c1ccc2c(c1)C1(c3cc(N4CCCN5CCCN=C54)ccc3-c3ccc(N4CCCN5CCCN=C54)cc31)c1cc(C(C)(C)C)ccc1-2` [Structural Formula (100), 1,1′-(2′,7′-di-tert-butyl-9,9′-spirobi[9H-fluorene]-2,7-diyl)bis(1,3,4,6,7,8-hexahydro-2H-pyrimido[1,2-a]pyrimidine)], the solubility at 1 min lay within 58 to 61 µg/mL and the “solubility in water as a fraction of the solubility of 2,7hpp2SF in water” value is “less than or equal to ⅕”.

In the case of `c1ccc2c(c1)-c1ccccc1C21c2cc(N3CCCN4CCCN=C43)ccc2-c2ccc(N3CCCN4CCCN=C43)cc21` [2,7hpp2SF, 1,1′-(9,9′-spirobi[9H-fluorene]-2,7-diyl)bis(1,3,4,6,7,8-hexahydro-2H-pyrimido[1,2-a]pyrimidine), reference compound], the solubility at 1 min is 330 to 390 µg/mL (≈ 559 to 660 µM).

Take `CC(C)(C)c1ccc2c(c1)C1(c3ccccc3-c3ccc(N4CCCN5CCCN=C54)cc31)c1cc(C(C)(C)C)ccc1-2` [Structural Formula (101), 1-(2′,7′-di-tert-butyl-9,9′-spirobi[9H-fluoren]-2-yl)-1,3,4,6,7,8-hexahydro-2H-pyrimido[1,2-a]pyrimidine]: the solubility at 1 min is under 2.3 µg/mL and the “solubility in water as a fraction of the solubility of 2,7hpp2SF in water” value is recorded as “less than or equal to 1/140”. Besides, under “pressure of one atmosphere, room temperature (RT)”, the “weight that is dissolved in 1.0 mL of water” value is on record as “less than 0.0023 mg”.

The term solubility denotes the dissolved amount per volume that the medium holds. A higher solubility goes with much dissolved substance.

The values are drawn from patent publication US20230348400A1, “ORGANIC COMPOUND, LIGHT-EMITTING DEVICE, AND LIGHT-EMITTING APPARATUS” (SEMICONDUCTOR ENERGY LABORATORY CO., LTD., priority 2022, published 2023).
